US7803760B2, “Methods of inducing ovulation” (Merck Serono SA, priority 2000, dated 2010)

Assays:
immature female rats [1] = assay: In vivo ovulation model: FSH-matured follicles in immature rats, oocytes in oviduct counted 18 hours after administration; design: species or system rat; settings: FSH pretreated rats
Excerpt: The role of FSH in any ovulation induction regimen is for promoting follicular development and maturation, not ovulation induction.
All injections were subcutaneous. Results are expressed as mean plus or minus standard deviations. […] The effects of Compound 1, a known PDE inhibitor, are shown.
Data represent average number of oocytes in oviducts of all rats in each group and frequency of ovulating rats. […] Results are expressed as mean plus or minus standard deviations.
Data represent average number of oocytes in oviducts of all rats in each group and frequency of ovulating rats. Results are expressed as mean plus or minus standard deviations.
(§1) Following FSH induced follicular maturation (2.16 IU/rat/injection; bid×2 days) Compound 2 was either injected subcutaneously (subcutis) or administered by oral gavage. Ovulation was determined 18 hours after Compound 2 administration by counting oocytes in oviduct. Data represent average number of oocytes in oviducts of all rats in each group and frequency of ovulating rats. Results are expressed as mean plus or minus standard deviations.
as §1, with “days) […] was either” for “days) Compound 2 was either”

immature female rats [2] = assay: Follicle maturation in vivo: co-administration with sub-optimal FSH, then ovulatory hCG, oocytes in oviduct counted; design: species or system rat; settings: FIG. 3
Description: Mature ovarian follicles generated in immature female rats by treatment with a sub-optimal dose of FSH (1.08 IU/rat/injection; bid×3 days) with and without co-administration of Compound 1 (0.1, 1, 10, and 50 mg/kg/injection: bid×3 days). […] The PDE inhibitors were given in conjunction with sub-optimal doses of FSH.
All injections were subcutaneously administered. […] Results are expressed as mean plus or minus standard deviations. […] As also noted in FIG. 3, a PDE inhibitor (Compound 1) inhibited (rather than stimulated) both ovulation administered at 50 mg/kg.

[3] = tested on: rat ovarian granulosa cells; assay: Rat ovarian granulosa cell cAMP levels in vitro (cAMP RIA of conditioned media); assay type: cell-based; settings: 25 micromolar compound with sub-effective (0.1 pM) gonadotropin, 48 hrs, FIG. 2
Description: Ovaries were removed from immature 25 day old, hypophysectomized, diethylstilbesterol treated Sprague-Dawley rats. The ovaries were repeatedly punctured with 27 gauge needles to liberate granulosa cells from the follicles. Cells were washed and re-suspended in McCoys SA media+0.1% BSA+2 μM androstenedione. Viable cells in number of 100,000 were loaded into 6-well tissue culture dishes in a 1.0 ml volume (with Compound 1 and Compound 2 at a concentration of 25 micromolar, either alone or in conjunction with a low, 0.1 pM dose of gonadotropin). Plates were incubated in a 37° C. incubator, 100% humidity, 5.0% CO2 for 48 hrs. Conditioned media were assayed in a cAMP specific radioimmunoassay (RIA). Results are expressed as mean plus or minus standard deviations.

immature rats = assay: Ovulation and fertility in FSH/PMSG pretreated immature rats; assay type: in vivo, rat; settings: single subcutaneous injection, FIG. 10
Description: Follicular maturation was induced in immature rats with FSH (4.33 IU/rat/injection; bid×2 days) and Pregnant Mare's Serum Gonadotropin (PMSG) (1.5 IU/rat/injection; bid X 2 days). […] FSH and PMSG induced rats were then treated with either Compound 2 (12 rats) or vehicle (12 rats) by subcutaneous administration. In one cohort of rats (6 rats per treatment), ovulation was determined 18 hours after Compound 2 or vehicle administration by counting oocytes in oviduct. To assess fertility, another cohort of rats (6 rats per treatment) were individually placed overnight in a cage together with a single adult male rat of proven fertility. The next day, male rats were removed and the females were caged together by group until the day of parturition. The number of live full-term pups observed at the time of parturition was recorded. […] Results for both ovulation and live pups are expressed as mean plus or minus standard deviations.

[4] = single subcutaneous injection co-administered with sub-effective dose of hCG
[5] = subcutaneous, compound alone without hCG
[6] = oral gavage, compound alone without hCG

| SMILES | ovulation (oocytes in oviduct) (immature female rats [1]; [4]) | ovulation (oocytes in oviduct) (immature female rats [1]; [5]) | ovulation (oocytes in oviduct) (immature female rats [1]; [6]) | ovulation (oocytes in oviduct) (immature female rats [2]; 50 mg/kg/injection bid x 3 days s.c. with sub-optimal FSH (1.08 IU), ovulatory hCG 20 IU) | ability of a sub-optimal dose of FSH to prepare follicles to ovulate (immature female rats [2]; increasing doses 0.1, 1, 10, 50 mg/kg/injection bid x 3 days s.c.) | cAMP levels [3] | number of live full-term pups at parturition (immature rats; FSH/PMSG pretreated rats mated overnight) | ovulation (oocytes in oviduct) (immature rats; FSH/PMSG pretreated rats, 18 hours) |
| --- | --- | --- | --- | --- | --- | --- | --- | --- |
| Clc1nc2c(N3CCCC3)nc(N3CCNCC3)nc2nc1NCc1ccccc1 [Compound 4, 7-Benzylamino-6-chloro-2-piperazino-4-pyrrolidinopteridine] | induction of ovulation | little or no ovulation |  |  |  |  |  |  |
| CCOc1cc2cc(CO)c(CO)c(-c3ccnc(-n4nc(-c5cccnc5)c5ccccc5c4=O)c3)c2cc1OCC.Cl [Compound 3, 2-(4-(6,7-Diethoxy-2,3-bis(hydroxymethyl)naphthalen-1-yl)pyridin-2-yl)-4-(3-pyridyl)pthalazin-1(2H)-one hydrochloride] |  | induction of ovulation | induction of ovulation |  |  |  |  |  |
| COc1ccc([C@]2(C#N)CC[C@@H](C(=O)O)CC2)cc1OC1CCCC1 [Compound 1, Cis-4-cyano-4-(3-(cyclopentyloxy)-4-methoxyphenyl)cyclohexane-1-carboxylic acid] | induction of ovulation | induction of ovulation |  | inhibited | failed to enhance | significant increase in cAMP levels |  |  |
| COc1ccc(C(=O)Nc2c(Cl)cncc2Cl)cc1OC1CCCC1 [Compound 2, 3-(Cyclopentyloxy)-N-(3,5-dichloropyridin-4-yl)-4-methoxybenzamide] |  | induction of ovulation | induction of ovulation |  |  | significant increase in cAMP levels | increased number of live pups | induction of ovulation |
